In patent US20200003756A1, “METHOD FOR OBSERVING SEBACEOUS GLAND” (MANDOM CORPORATION, priority 2017, published 2020):

Test system: sebaceous-gland-structure A
Assay: Classification of the state of lipid droplets in cells of the outermost layer of the sebaceous gland after suspension culture (Example 1)
Type: cell-based
Set-up: key to State of lipid droplet in cell contained in outermost layer of sebaceous gland FIG. 6(A) / State of lipid droplet in cell contained in outermost layer of sebaceous gland FIG. 6(B) / State of lipid droplet in cell contained in outermost layer of sebaceous gland FIG. 6(C) / State of lipid droplet in cell contained in outermost layer of sebaceous gland FIG. 6(D) / State of lipid droplet in cell contained in outermost layer of sebaceous gland FIG. 6(E) / State of lipid droplet in cell contained in outermost layer of sebaceous gland FIG. 6(F) / State of lipid droplet in cell contained in outermost layer of sebaceous gland FIG. 6(G): “◯ (open circle)” shows that a given state shown in FIG. 6 was observed; —: “-” shows that the given state shown in FIG. 6 was not observed
Conditions: for State of lipid droplet in cell contained in outermost layer of sebaceous gland FIG. 6(A): (A) No lipid droplet is found in the cell; for State of lipid droplet in cell contained in outermost layer of sebaceous gland FIG. 6(B): (B) A few lipid droplets are found in the cell; for State of lipid droplet in cell contained in outermost layer of sebaceous gland FIG. 6(C): (C) There is a space of lipid droplets in the cell; for State of lipid droplet in cell contained in outermost layer of sebaceous gland FIG. 6(D): (D) Lipid droplets start erosion of the nucleus; for State of lipid droplet in cell contained in outermost layer of sebaceous gland FIG. 6(E): (E) Lipid droplets start being connected to each other; for State of lipid droplet in cell contained in outermost layer of sebaceous gland FIG. 6(F): (F) The cell is fully occupied by lipid droplets; for State of lipid droplet in cell contained in outermost layer of sebaceous gland FIG. 6(G): (G) The cell is disappeared
Excerpt: Under a stereoscopic microscope, a subcutaneous tissue was removed from a skin tissue by using scissors. Next, collagenous fibers were removed from the dermis in the skin tissue by using scissors and tweezers after removing the subcutaneous tissue, to obtain a sebaceous-gland-structure in which a sebaceous gland was exposed (hereinafter referred to as “sebaceous-gland-structure A”). […] In the sebaceous-gland-structure A, a sebaceous gland was exposed.
The sebaceous-gland-structure A obtained in Preparation Example 6 was immersed in a 4% by mass PFA-containing PBS solution at 4° C. for 30 minutes to fix the sebaceous-gland-structure A, thereby giving a fixed sample. The resulting fixed sample was washed by incubating the sample in a 2% by mass BSA-containing PBSTT solution at 4° C. for 1 hour. Washing was carried out three times.
The fixed sample after the washing was incubated in the primary antibody-containing solution obtained in Preparation Example 2 at 4° C. for 24 hours. The fixed sample after the incubation was washed by incubating the fixed sample in a […] by mass BSA-containing PBSTT solution at 4° C. for 1 hour. Washing was carried out three times.
The fixed sample after the washing was incubated in the staining reagent A obtained in Preparation Example 3 at 4° C. for 12 hours, to stain the sebaceous gland basal cell and the nucleus present in the outermost layer of the sebaceous gland. The stained fixed sample was washed by incubating the sample in a 2% by mass BSA-containing PBSTT solution at 4° C. for 1 hour. Washing was carried out three times.
The fixed sample after the washing was incubated in the staining reagent B obtained in Preparation Example 4 at room temperature (25° C.) for 30 minutes, to stain the sebum contained in the sebaceous-gland-structure A. The stained fixed sample was washed by incubating the sample in a 2% by mass BSA-containing PBSTT solution at 4° C. for 1 hour. Washing was carried out three times.
The fixed sample after the washing was subjected to incubation in a 20% by mass glycerol-containing PBS solution at 4° C. for 1 hour, incubation in a 50% by mass glycerol-containing PBS solution at 4° C. for 1 hour, and incubation in a 80% by mass glycerol-containing PBS solution at 4° C. for 1 hour, to substitute the moisture contained in the fixed sample with glycerol.
An appropriate amount (for example, 50 μL) of an 80 by mass aqueous glycerol solution was added to a region surrounded by the spaced contained in the spacer-attached coverslip obtained in Preparation Example 5. Next, the glycerol-substituted sebaceous-gland-structure A was placed on the region surrounded by the spacer contained in the spacer-attached coverslip so that the side of the sebaceous gland was directed downwards. Thereafter, the region surrounded by the spacer contained in the spacer-attached coverslip was covered with a round-shaped coverslip (diameter: 12 mm), to obtain an observation sample.
Linoleic acid was added to the mixed medium obtained in Preparation Example 1 (hereinafter also referred to as “test sample A”) so that the concentration of linoleic acid was 1×10^−4 M, to obtain a test sample B. In addition, linoleic acid was added to the mixed medium obtained in Preparation Example 1 so that the concentration of linoleic acid was 1×10^−3 M, to obtain a test sample C.
One milliliter of the test sample A was added to each well of a 24-well plate. Next, the sebaceous-gland-structure A obtained in Preparation Example 6 was cultured in a suspended state in the test sample A contained in each well of the 24-well plate in the presence of 5% by volume carbon dioxide at 37° C. for 24 hours, to contact the sebaceous-gland-structure A with the test sample A (Experiment number 1). In addition, the sebaceous-gland-structure A was contacted with the test sample A in the same manner as in Experiment number 1 except that in Experiment number 1, 48-hour culture was carried out in place of 24-hour culture (Experiment number 2). […]

[1] = linoleic acid 1 × 10^−3 M, culture 24 h (Experiment 5)
[2] = linoleic acid 1 × 10^−3 M, culture 48 h (Experiment 6)
[3] = linoleic acid 1 × 10^−4 M, culture 24 h (Experiment 3)
[4] = linoleic acid 1 × 10^−4 M, culture 48 h (Experiment 4)

For `CCCCC/C=C\C/C=C\CCCCCCCC(=O)O` [linoleic acid, Linoleic acid], the “State of lipid droplet in cell contained in outermost layer of sebaceous gland FIG. 6(A)” value (“State … of sebaceous gland FIG. 6(A)” below) [1] was “◯”, the “State of lipid droplet in cell contained in outermost layer of sebaceous gland FIG. 6(B)” value (shortened to “State … of sebaceous gland FIG. 6(B)”) [1] was “◯” and the “State of lipid droplet in cell contained in outermost layer of sebaceous gland FIG. 6(C)” value (“State … of sebaceous gland FIG. 6(C)” for short) [1] was “◯”. For the same molecule, the “State of lipid droplet in cell contained in outermost layer of sebaceous gland FIG. 6(D)” value (“State … of sebaceous gland FIG. 6(D)” below) [1] was “◯”, the “State of lipid droplet in cell contained in outermost layer of sebaceous gland FIG. 6(E)” value (shortened to “State … of sebaceous gland FIG. 6(E)”) [1] was “◯” and the “State of lipid droplet in cell contained in outermost layer of sebaceous gland FIG. 6(F)” value (“State … of sebaceous gland FIG. 6(F)” for short) [1] was “—”. The “State of lipid droplet in cell contained in outermost layer of sebaceous gland FIG. 6(G)” value (“State … of sebaceous gland FIG. 6(G)” below) [1] was “◯”, the “State … of sebaceous gland FIG. 6(A)” value [2] was “◯” and the “State … of sebaceous gland FIG. 6(B)” value [2] was “◯”. The “State … of sebaceous gland FIG. 6(C)” value [2] was “◯”, the “State … of sebaceous gland FIG. 6(D)” value [2] was “◯” and the “State … of sebaceous gland FIG. 6(E)” value [2] was “◯”. For the same molecule, the “State … of sebaceous gland FIG. 6(F)” value [2] was “◯”, the “State … of sebaceous gland FIG. 6(G)” value [2] was “◯” and the “number of cells progressing sebum production (tendency from Table 2)” value (linoleic acid 1×10^−4 M and 1×10^−3 M, culture 24 h and 48 h) was “the higher the linoleic acid concentration in the test sample is and the longer the culture time is, the larger the number of cells progressing sebum production is”. The “State … of sebaceous gland FIG. 6(A)” value [3] was “◯”, the “State … of sebaceous gland FIG. 6(B)” value [3] was “◯” and the “State … of sebaceous gland FIG. 6(C)” value [3] was “—”. For the same molecule, the “State … of sebaceous gland FIG. 6(D)” value [3] was “—”, the “State … of sebaceous gland FIG. 6(E)” value [3] was “—” and the “State … of sebaceous gland FIG. 6(F)” value [3] was “—”. The “State … of sebaceous gland FIG. 6(G)” value [3] was “—”, the “State … of sebaceous gland FIG. 6(A)” value [4] was “◯” and the “State … of sebaceous gland FIG. 6(B)” value [4] was “◯”. For the same molecule, the “State … of sebaceous gland FIG. 6(C)” value [4] was “◯”, the “State … of sebaceous gland FIG. 6(D)” value [4] was “—” and the “State … of sebaceous gland FIG. 6(E)” value [4] was “—”. For the same molecule, the “State … of sebaceous gland FIG. 6(F)” value [4] was “—” and the “State … of sebaceous gland FIG. 6(G)” value [4] was “—”.
